Source: ChEMBL document CHEMBL4382233, “Discovery of novel arylethenesulfonyl fluorides as potential candidates against methicillin-resistant of Staphylococcus aureus (MRSA) for overcoming multidrug resistance of bacterial infections” (2019)
Converted amounts (≈) assume the structure as drawn.

Tests used:
Assay type in all cases: functional
[1] = test system: Staphylococcus epidermidis; experiment: Antibacterial activity against methicillin-resistant Staphylococcus epidermidis assessed as zone of inhibition at 20 ug/mL after 24 hrs by agar disc diffusion method; details: read-out: IZ
[2] = test system: Staphylococcus haemolyticus; experiment: Antibacterial activity against methicillin-resistant Staphylococcus haemolyticus after overnight incubation by micro broth dilution analysis
[3] = test system: Staphylococcus epidermidis; experiment: Antibacterial activity against methicillin-resistant Staphylococcus epidermidis after overnight incubation by micro broth dilution analysis
[4] = test system: Staphylococcus haemolyticus; experiment: Antibacterial activity against methicillin-resistant Staphylococcus haemolyticus assessed as zone of inhibition at 50 ug/mL after 24 hrs by agar disc diffusion method; details: read-out: IZ
[5] = test system: Staphylococcus aureus; experiment: Antibacterial activity against methicillin-resistant Staphylococcus aureus after overnight incubation by micro broth dilution analysis
[6] = test system: Staphylococcus aureus; experiment: Antibacterial activity against methicillin-resistant Staphylococcus aureus assessed as zone of inhibition at 50 ug/mL after 24 hrs by agar disc diffusion method; details: read-out: IZ
[7] = test system: Staphylococcus haemolyticus; experiment: Antibacterial activity against methicillin-resistant Staphylococcus haemolyticus assessed as zone of inhibition at 800 ng/mL after 24 hrs by agar disc diffusion method; details: read-out: IZ
[8] = test system: Staphylococcus haemolyticus; experiment: Antibacterial activity against methicillin-resistant Staphylococcus haemolyticus assessed as zone of inhibition at 400 ng/mL after 24 hrs by agar disc diffusion method; details: read-out: IZ
[9] = test system: Staphylococcus haemolyticus; experiment: Antibacterial activity against methicillin-resistant Staphylococcus haemolyticus assessed as zone of inhibition at 200 ng/mL after 24 hrs by agar disc diffusion method; details: read-out: IZ
[10] = test system: Staphylococcus aureus; experiment: Antibacterial activity against methicillin-resistant Staphylococcus aureus assessed as zone of inhibition at 400 ng/mL after 24 hrs by agar disc diffusion method; details: read-out: IZ
[11] = test system: Staphylococcus aureus; experiment: Antibacterial activity against methicillin-resistant Staphylococcus aureus assessed as zone of inhibition at 200 ng/mL after 24 hrs by agar disc diffusion method; details: read-out: IZ
[12] = test system: Staphylococcus aureus; experiment: Antibacterial activity against methicillin-resistant Staphylococcus aureus assessed as zone of inhibition at 800 ng/mL after 24 hrs by agar disc diffusion method; details: read-out: IZ
[13] = test system: Staphylococcus epidermidis; experiment: Antibacterial activity against methicillin-resistant Staphylococcus epidermidis assessed as zone of inhibition at 800 ng/mL after 24 hrs by agar disc diffusion method; details: read-out: IZ
[14] = test system: Staphylococcus epidermidis; experiment: Antibacterial activity against methicillin-resistant Staphylococcus epidermidis assessed as zone of inhibition at 200 ng/mL after 24 hrs by agar disc diffusion method; details: read-out: IZ
[15] = test system: Staphylococcus epidermidis; experiment: Antibacterial activity against methicillin-resistant Staphylococcus epidermidis assessed as zone of inhibition at 400 ng/mL after 24 hrs by agar disc diffusion method; details: read-out: IZ

| Compound | zone of inhibition at 20 µg/mL [1] | MIC99 [2] | MIC99 [3] | zone of inhibition at 50 µg/mL [4] | MIC99 [5] | zone of inhibition at 50 µg/mL [6] | zone of inhibition at 0.8 µg/mL [7] | zone of inhibition at 0.4 µg/mL [8] | zone of inhibition at 0.2 µg/mL [9] | zone of inhibition at 0.4 µg/mL [10] | zone of inhibition at 0.2 µg/mL [11] | zone of inhibition at 0.8 µg/mL [12] | zone of inhibition at 0.8 µg/mL [13] | zone of inhibition at 0.2 µg/mL [14] | zone of inhibition at 0.4 µg/mL [15] |
| --- | --- | --- | --- | --- | --- | --- | --- | --- | --- | --- | --- | --- | --- | --- | --- |
| CSc1ccc(/C=C/S(=O)(=O)F)cc1 | 6.4 mm | 0.838 µg/mL (≈ 3.61 µM) | 0.835 µg/mL (≈ 3.59 µM) | 8.2 mm | 41.1 µg/mL (≈ 177 µM) | 6.2 mm | 7.4 mm | 5.2 mm | 3.1 mm | – | – | – | – | – | – |
| O=Cc1cccc(/C=C/S(=O)(=O)F)c1 | 6.5 mm | 0.828 µg/mL (≈ 3.87 µM) | 41.1 µg/mL (≈ 192 µM) | 8.2 mm | 17.2 µg/mL (≈ 80.2 µM) | 10.3 mm | 6.1 mm | 5.1 mm | 2.2 mm | 3.5 mm | 3.1 mm | 4.2 mm | – | – | – |
| O=S(=O)(F)/C=C/C=C/c1cccc(C(F)(F)F)c1 | 8.5 mm | 55 µg/mL (≈ 196 µM) | 0.822 µg/mL (≈ 2.93 µM) | 4.5 mm | 44.1 µg/mL (≈ 157 µM) | 6.2 mm | – | – | – | – | – | – | 8.5 mm | 6.2 mm | 7.1 mm |
| O=S(=O)(F)/C=C/c1cccc(Br)c1 | 4.5 mm | 16.1 µg/mL (≈ 60.8 µM) | 58.2 µg/mL (≈ 219 µM) | 8.5 mm | 0.813 µg/mL (≈ 3.07 µM) | 17.1 mm | 52 mm | 42 mm | 32 mm | 10.1 mm | 5.1 mm | 12 mm | – | – | – |
| O=S(=O)(F)/C=C/C=C/c1cccc(F)c1 | 8.3 mm | 50.1 µg/mL (≈ 218 µM) | 0.82 µg/mL (≈ 3.56 µM) | 5.5 mm | 48 µg/mL (≈ 209 µM) | 7.2 mm | – | – | – | – | – | – | 8.3 mm | 4.2 mm | 6.1 mm |
| O=S(=O)(F)/C=C/c1cc(O)cc(O)c1 | 9.3 mm | 49 µg/mL (≈ 225 µM) | 0.846 µg/mL (≈ 3.88 µM) | 4.2 mm | 17 µg/mL (≈ 78 µM) | 12.2 mm | – | – | – | 4.2 mm | 3.5 mm | 4.5 mm | 6.2 mm | 3.1 mm | 4.2 mm |
| O=[N+]([O-])c1ccccc1/C=C/C=C/S(=O)(=O)F | 6.2 mm | 16.2 µg/mL (≈ 62.8 µM) | 44 µg/mL (≈ 171 µM) | 6.5 mm | 47 µg/mL (≈ 183 µM) | 5.5 mm | 5.2 mm | 4.2 mm | 3.2 mm | – | – | – | – | – | – |
| CC(C)c1cccc(/C=C/S(=O)(=O)F)c1 | 18 mm | 43 µg/mL (≈ 189 µM) | 0.81 µg/mL (≈ 3.55 µM) | 4.2 mm | 16.1 µg/mL (≈ 70.3 µM) | 20.1 mm | – | – | – | 3.5 mm | 3.1 mm | 4.2 mm | 15.1 mm | 9.2 mm | 12.2 mm |
| O=S(=O)(F)/C=C/c1cccc(I)c1 | 8.2 mm | 23.1 µg/mL (≈ 74.2 µM) | 0.825 µg/mL (≈ 2.64 µM) | 8.2 mm | 46 µg/mL (≈ 148 µM) | 12.3 mm | 3.2 mm | 0 mm | 0 mm | – | – | – | 8.1 mm | 6.1 mm | 7.1 mm |
| O=S(=O)(F)/C=C/c1ccc(O)cc1 | 4.5 mm | 57.1 µg/mL (≈ 283 µM) | 45 µg/mL (≈ 223 µM) | 3.5 mm | 16.1 µg/mL (≈ 79.4 µM) | 10.2 mm | – | – | – | 4.3 mm | 3.2 mm | 5.2 mm | – | – | – |
| Cc1ccccc1/C=C/S(=O)(=O)F | 15.3 mm | 54.1 µg/mL (≈ 270 µM) | 17.2 µg/mL (≈ 85.8 µM) | 5.4 mm | 0.849 µg/mL (≈ 4.24 µM) | 15.4 mm | – | – | – | 5.1 mm | 4.2 mm | 6.4 mm | 4.5 mm | 2.2 mm | 3.4 mm |
